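96-well plates; 48 h exposure; 5 concentrations. Endpoints by linear interpolation between flanking doses. Not reached: highest tested concentration assigned. GI50: concentration for 50% inhibition of growth. TGI is the concentration that stops growth completely.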
Experiments:
Test in all cases: inhibition of tumour cell growth, NCI panel, 48 h; in the data active = GI50 below about 0.43 µM; inactive = the rest
KM12 colon = tested on: KM12 colon
RPMI-8226 leukemia = tested on: RPMI-8226 leukemia
SF-539 CNS = tested on: SF-539 CNS
786-0 renal = tested on: 786-0 renal
HT29 colon = tested on: HT29 colon
ACHN renal = tested on: ACHN renal
OVCAR-3 ovarian = tested on: OVCAR-3 ovarian
HCC-2998 colon = tested on: HCC-2998 colon
A549 NSCLC = tested on: A549 NSCLC
MOLT-4 leukemia = tested on: MOLT-4 leukemia
CCRF-CEM leukemia = tested on: CCRF-CEM leukemia
CAKI-1 renal = tested on: CAKI-1 renal
LOX IMVI melanoma = tested on: LOX IMVI melanoma
UACC-257 melanoma = tested on: UACC-257 melanoma
UO-31 renal = tested on: UO-31 renal
OVCAR-8 ovarian = tested on: OVCAR-8 ovarian
MDA-MB-435 = tested on: MDA-MB-435
OVCAR-5 ovarian = tested on: OVCAR-5 ovarian
U251 CNS = tested on: U251 CNS
SW-620 colon = tested on: SW-620 colon
HCT-15 colon = tested on: HCT-15 colon
HOP-92 NSCLC = tested on: HOP-92 NSCLC
MALME-3M melanoma = tested on: MALME-3M melanoma
NCI/ADR-RES ovarian = tested on: NCI/ADR-RES ovarian
NCI-H226 lung = tested on: NCI-H226 lung
SNB-19 CNS = tested on: SNB-19 CNS
SN12C renal = tested on: SN12C renal
HS 578T breast = tested on: HS 578T breast
MDA-MB-231 breast = tested on: MDA-MB-231 breast
SK-MEL-5 melanoma = tested on: SK-MEL-5 melanoma
SNB-75 CNS = tested on: SNB-75 CNS
SF-268 CNS = tested on: SF-268 CNS
MCF7 breast = tested on: MCF7 breast
SK-MEL-28 melanoma = tested on: SK-MEL-28 melanoma
M14 melanoma = tested on: M14 melanoma
SF-295 CNS = tested on: SF-295 CNS
OVCAR-4 ovarian = tested on: OVCAR-4 ovarian
COLO 205 colon = tested on: COLO 205 colon
PC-3 prostate = tested on: PC-3 prostate
SK-OV-3 ovarian = tested on: SK-OV-3 ovarian
SR leukemia = tested on: SR leukemia
SK-MEL-2 melanoma = tested on: SK-MEL-2 melanoma
DU-145 prostate = tested on: DU-145 prostate
RXF 393 renal = tested on: RXF 393 renal
A498 renal = tested on: A498 renal
TK-10 renal = tested on: TK-10 renal
NCI-H460 lung = tested on: NCI-H460 lung
HL-60(TB) leukemia = tested on: HL-60(TB) leukemia
EKVX NSCLC = tested on: EKVX NSCLC
IGROV1 ovarian = tested on: IGROV1 ovarian
BT-549 breast = tested on: BT-549 breast
NCI-H522 lung = tested on: NCI-H522 lung
K-562 leukemia = tested on: K-562 leukemia
HCT-116 colon = tested on: HCT-116 colon
T-47D breast = tested on: T-47D breast
UACC-62 melanoma = tested on: UACC-62 melanoma

C/C(=N\NC(=O)CSc1nc2sc3c(c2c(=O)n1-c1ccccc1)CCC(C)C3)c1ccc(Cl)cc1 (configuration not stated)
95.1 µM: TGI (UACC-257 melanoma)
17.5 µM: TGI (COLO 205 colon)
8.71 µM: TGI (RXF 393 renal)
12.6 µM: TGI (NCI/ADR-RES ovarian)
active: GI50 (786-0 renal) 0.366 µM | GI50 (LOX IMVI melanoma) 0.348 µM | GI50 (HCT-15 colon) 0.387 µM
39.1 µM: TGI (NCI-H522 lung)
68 µM: TGI (T-47D breast)
15.7 µM: TGI (LOX IMVI melanoma)
> 100 µM: TGI (KM12 colon) | TGI (RPMI-8226 leukemia) | TGI (ACHN renal) | TGI (OVCAR-3 ovarian) | TGI (HCC-2998 colon) | TGI (A549 NSCLC) | TGI (MOLT-4 leukemia) | TGI (CCRF-CEM leukemia) | TGI (CAKI-1 renal) | TGI (OVCAR-5 ovarian) | TGI (U251 CNS) | TGI (SW-620 colon) | TGI (MALME-3M melanoma) | TGI (SNB-19 CNS) | TGI (SN12C renal) | TGI (HS 578T breast) | TGI (MDA-MB-231 breast) | TGI (SF-268 CNS) | TGI (MCF7 breast) | TGI (SK-MEL-28 melanoma) | TGI (SF-295 CNS) | TGI (OVCAR-4 ovarian) | TGI (PC-3 prostate) | TGI (SR leukemia) | TGI (DU-145 prostate) | TGI (A498 renal) | TGI (TK-10 renal) | TGI (NCI-H460 lung) | TGI (HL-60(TB) leukemia) | TGI (EKVX NSCLC) | TGI (IGROV1 ovarian) | TGI (K-562 leukemia) | TGI (HCT-116 colon) | TGI (UACC-62 melanoma)
15.8 µM: TGI (UO-31 renal)
13.3 µM: TGI (HT29 colon)
26.5 µM: TGI (BT-549 breast)
13.7 µM: TGI (SNB-75 CNS)
52.7 µM: TGI (NCI-H226 lung)
14.7 µM: TGI (SK-MEL-2 melanoma)
inactive: GI50 (KM12 colon) 2.66 µM | GI50 (RPMI-8226 leukemia) 2.83 µM | GI50 (SF-539 CNS) 0.866 µM | GI50 (HT29 colon) 3.13 µM | GI50 (ACHN renal) 1.7 µM | GI50 (OVCAR-3 ovarian) 3.33 µM | GI50 (HCC-2998 colon) 2.76 µM | GI50 (A549 NSCLC) 2.57 µM | GI50 (MOLT-4 leukemia) 0.575 µM | GI50 (CCRF-CEM leukemia) 0.742 µM | GI50 (CAKI-1 renal) 2.04 µM | GI50 (UACC-257 melanoma) 16.1 µM | GI50 (UO-31 renal) 2.11 µM | GI50 (OVCAR-8 ovarian) 3.31 µM | GI50 (MDA-MB-435) 3.86 µM | GI50 (OVCAR-5 ovarian) 3.52 µM | GI50 (U251 CNS) 1.98 µM | GI50 (SW-620 colon) 3.26 µM | GI50 (HOP-92 NSCLC) 1.33 µM | GI50 (MALME-3M melanoma) 11.8 µM | GI50 (NCI/ADR-RES ovarian) 2.63 µM | GI50 (NCI-H226 lung) 13 µM | GI50 (SNB-19 CNS) 4.89 µM | GI50 (SN12C renal) 3.4 µM | GI50 (HS 578T breast) 8.85 µM | GI50 (MDA-MB-231 breast) 4.67 µM | GI50 (SK-MEL-5 melanoma) 4.8 µM | GI50 (SNB-75 CNS) 2.55 µM | GI50 (SF-268 CNS) 3.73 µM | GI50 (MCF7 breast) 0.439 µM | GI50 (SK-MEL-28 melanoma) 7.76 µM | GI50 (M14 melanoma) 2.34 µM | GI50 (SF-295 CNS) 4.18 µM | GI50 (OVCAR-4 ovarian) 2.2 µM | GI50 (COLO 205 colon) 2.94 µM | GI50 (PC-3 prostate) 3.26 µM | GI50 (SK-OV-3 ovarian) 3.68 µM | GI50 (SR leukemia) 0.735 µM | GI50 (SK-MEL-2 melanoma) 2.31 µM | GI50 (DU-145 prostate) 3.63 µM | GI50 (RXF 393 renal) 1.53 µM | GI50 (A498 renal) > 100 µM | GI50 (TK-10 renal) 4.64 µM | GI50 (NCI-H460 lung) 1.16 µM | GI50 (HL-60(TB) leukemia) 1.51 µM | GI50 (EKVX NSCLC) 5.08 µM | GI50 (IGROV1 ovarian) 2.82 µM | GI50 (BT-549 breast) 3.6 µM | GI50 (NCI-H522 lung) 3.39 µM | GI50 (K-562 leukemia) 0.592 µM | GI50 (HCT-116 colon) 0.578 µM | GI50 (T-47D breast) 3.55 µM | GI50 (UACC-62 melanoma) 3.57 µM
66.1 µM: TGI (MDA-MB-435)
38.1 µM: TGI (786-0 renal)
36.5 µM: TGI (SK-OV-3 ovarian)
25.7 µM: TGI (HCT-15 colon)
19.5 µM: TGI (SK-MEL-5 melanoma)
9.88 µM: TGI (HOP-92 NSCLC)
14.1 µM: TGI (M14 melanoma)
84.7 µM: TGI (OVCAR-8 ovarian)
4.02 µM: TGI (SF-539 CNS)
